Data taken from patent US9364554B2, “Extracellular targeted drug conjugates” (priority 2009, dated 2016).
Where two headings read alike, the source gives them in different places.

Key:
[1] = tested on: A549; test: In vitro cell proliferation assay (CellTiter-Glo, 3 days) A549; format: cell-based, human; conditions: for activity decrease when attached to the PEG24 linker and capped, compared to the free uncoupled agent: Example 15; for IC50: Homo sapiens
Procedure: (§1) In vitro cell proliferation assays. […] All cell lines were maintained in complete media [RPMI medium 1640 supplemented with 10% (wt/vol) fetal bovine serum and Gentamycin (50 μg/ml)]. Cells were plated at a density of 1250 (H460 and A549) or 1825 (HCT15 and MCF7) cells per well of each 384-well white tissue culture treated microtiter plate in 20 uls complete media, and then were grown for 24 hour at 37° C. with 7% CO2 in a humidified incubator before agent/conjugate addition. In a separate 96-well plate, agent and antibody conjugate (in PBS) stocks were serially diluted in complete media at 5× final working concentrations, and 5 ul added to the cells used in the assay. Cells were incubated with the agent/conjugate for 3 days before cell viability testing. Cell viability testing used the CellTiter-Glo luminescent cell viability assay (Promega, Madison, Wis.). IC50 values of the agents to each cell line were determined using GraphPad Prism 5 software.
For the experiment below, α-Fl-CEN10-105 (also termed α-Fl-106), CEN10-105-Cys (also termed PEG24106) and M53-PEG24-CEN09-106 were varied as indicated in FIG. 11. […] All were assayed in the A549 cell proliferation assay. Cells were maintained in complete media [RPMI medium 1640 supplemented with 10% (wt/vol) fetal bovine serum and Gentamycin (50 μg/ml)]. Cells were plated at a density of 1250 per well of a 384-well white tissue culture treated microtiter plate in 20 uls complete media, then were grown for 24 hour at 37° C. with 7% CO2 in a humidified incubator before agent/conjugate addition. In a separate 96-well plate, agent and antibody conjugate (in PBS) stocks were serially diluted in complete media at 5× final working concentrations, and 5 uls added to the cells used in the assay. For the competition assay (M53 Comp) M53 was serially diluted from 500 to 0.11 nM in the presence of 5 nM PEG24-106, and 5 ul of these dilutions were added to cells used in this assay. Cells were incubated with the agent/conjugate for 3 days before cell viability testing. Cell viability testing used the CellTiterGlo luminescent cell viability assay (Promega, Madison, Wis.).
Cytotoxicity of the above EDCs were evaluated in vitro on the NSCLC line A549. Cells were maintained in complete media [RPMI medium 1640 supplemented with 10% (wt/vol) fetal bovine serum and Gentamycin (50 μg/ml)]. Cells were plated at a density of 1250 per well of a 384-well white tissue culture treated microtiter plate in 20 uls complete media, then were grown for 24 hour at 37° C. with 7% CO2 in a humidified incubator before conjugate addition. In a separate 96-well plate, ADC (in PBS) stocks were serially diluted in complete media at 5× final working concentrations, and 5 uls added to the cells used in the assay. Cells were incubated in the presence of the compounds for 72 hrs prior to cell viability testing. Cell viability testing was performed using the CellTiter-Glo luminescent cell viability assay (Promega, Madison, Wis.).
Cytotoxicity of the above compounds were evaluated in vitro on the NSCLC line A549. Cells were maintained in complete media [RPMI medium 1640 supplemented with 10% (wt/vol) fetal bovine serum and Gentamycin (50 μg/ml)]. Cells were plated at a density of 1250 per well of a 384-well white tissue culture treated microtiter plate in 20 uls complete media, then were grown for 24 hour at 37° C. with 7% CO2 in a humidified incubator before agent addition.

[2] = tested on: A375; test: Cytotoxicity IC50 on A375; format: cell-based; conditions: Homo sapiens
Text: (§2) ND indicates IC50 values that could not be determined at the concentrations tested. The presence of the antibody M53's target on the cell surface as determined by M53 cell staining is indicated as Yes/No. The origin of the cell line and disease type for each cell line is also indicated.
Parent CEN09-106, CEN09-104 and CEN10-126 drugs were all linked to antibody M53 via the PEG24 linker as described in Example 5. The intermediate drug-PEG24's were capped with cysteine as described in Example 5. Cytotoxicity of the EDC's and the drug-PEG24 linkers were evaluated in vitro on the NSCLC line A549 and malignant melanoma cell line A375 as described in Example 5.

[3] = tested on: H460; test: In vitro cell proliferation assay (CellTiter-Glo, 3 days) H460; format: cell-based; conditions: Homo sapiens
Procedure: as §1

[4] = tested on: A549 cells; test: In vitro cell proliferation assay, Example 4 (CellTiter-Glo, 2 days); format: cell-based, human
Procedure: In vitro cell proliferation assays. […] All cell lines were maintained in complete media [RPMI medium 1640 supplemented with 10% (wt/vol) fetal bovine serum and Gentamycin ([…])]. Cells were plated at a density of 5,000 cells per well of each 96-well black tissue culture treated microtiter plate in 95 ul complete media, then were grown for 24 hour at 37° C. with 7% CO2 in a humidified incubator before agent/conjugate addition. In a separate 96-well plate, agent (in DMSO) and antibody conjugate (in PBS) stocks were serially diluted in complete media at 20× final working concentrations, and 5 ul added to the cells used in the assay. Doxorubicin was used as the control to monitor the behavior of the cell lines used. Cells were incubated with the agent/conjugate for 2 days before luminescence reading. Cell viability testing used the CellTiter-Glo luminescent cell viability assay (Promega, Madison, Wis.).

[5] = tested on: MEL2; test: Cytotoxicity IC50 on MEL2; format: cell-based; conditions: Homo sapiens, Example 9
Text: as §2

[6] = tested on: MB-231; test: Cytotoxicity IC50 on MB-231; format: cell-based; conditions: Homo sapiens; Example 9
Text: as §2

[7] = tested on: A431; test: Cytotoxicity IC50 on A431; format: cell-based; conditions: Homo sapiens, A-431; Example 9
Text: as §2

[8] = tested on: MCF7; test: In vitro cell proliferation assay (CellTiter-Glo, 3 days) MCF7; format: cell-based; conditions: Homo sapiens
Procedure: as §1

[9] = tested on: MALME-3M; test: Cytotoxicity IC50 on MALME-3M; format: cell-based; conditions: Homo sapiens, Example 9
Text: as §2

[10] = tested on: MCF10a; test: Cytotoxicity IC50 on MCF10a; format: cell-based; conditions: Homo sapiens, MCF-10A; Example 9
Text: as §2

[11] = tested on: HT29; test: Cytotoxicity IC50 on HT29; format: cell-based; conditions: Homo sapiens, HT-29; Example 9
Text: as §2

[12] = tested on: HCT15; test: In vitro cell proliferation assay (CellTiter-Glo, 3 days) HCT15; format: cell-based; conditions: Homo sapiens
Procedure: as §1

[13] = tested on: SKOV3; test: Cytotoxicity IC50 on SKOV3; format: cell-based; conditions: Homo sapiens, SK-OV-3; Example 9
Text: as §2

[14] = A549, read-out: IC50 A549, Example 15

C[C@]12CCC(=NNC(=O)CN)C=C1CCC1C2CC[C@]2(C)[C@@H](c3ccc(=O)oc3)CC[C@]12O (stereo partly drawn) [CEN09-104, glycinyl hydrazine of scillarenone]
activity decrease when attached to the PEG24 linker and capped, compared to the free uncoupled agent [1]: ~5 fold | IC50 [1, 14]: 0.092 µM | IC50 ([2]; A-375, Example 15): 0.23 µM

N[C@@H](C=O)[C@@H](O)[C@H](O)[C@H](O)CO [GlcNH2, 2-amino-2-deoxy-D-Glucose, reference compound]
IC50 ([1]; A549, read-out: IC50 A549, Example 11, 457 nM to 1 mM): > 1000 µM | IC50 ([3]; NCI-H460, read-out: IC50 H460): > 1000 µM

scillarenin-4-amino-4-deoxy-L-ribopyranoside [CEN09-107]
activity of conjugate compared with free agent (in words) ([4]; A549, FIGS. 3-6): more active when not conjugated to L15

scillarenin neo-4-amino-4-deoxy-L-xylopyranoside [CEN08-243]
A549 cell cytotoxicity (in words) ([4]; within the testing concentration range, antibodies alone = reduced antibody with linker, no agent): display cytotoxic activity

C[C@]12CC[C@H](OC3OC[C@H](N)[C@@H](O)[C@@H]3O)C=C1CCC1C2CC[C@]2(C)[C@@H](c3ccc(=O)oc3)CC[C@]12O (stereo partly drawn) [CEN09-106, Scillarenin-4-amino-4-deoxy-L-xylopyranoside]
IC50 ([1]; A549, 72 h, Example 14, cysteine-capped linker forms, A549, 72 hrs): 0.00046 µM | IC50 ([1]; A549, 72 h, read-out: IC50 A549, 3 days, CellTiter-Glo): 0.00056 µM | IC50 ([1]; A549, read-out: IC50 A549, Example 9): 0.0007 µM | IC50 [1, 14]: 0.0005 µM | IC50 [5]: 0.0043 µM | IC50 [6]: 0.007 µM | IC50 [7]: 0.002 µM | IC50 ([2]; A-375, Example 9): 0.0032 µM | IC50 ([2]; A-375, Example 15): 0.0014 µM | IC50 ([8]; MCF7, 72 h, read-out: IC50 MCF7): 0.00188 µM | IC50 ([8]; MCF7, read-out: IC50 MCF7): 0.0026 µM | IC50 [9]: 0.0054 µM | IC50 [10]: 0.0066 µM | IC50 ([3]; NCI-H460, 72 h, read-out: IC50 H460): 0.00131 µM | IC50 ([3]; NCI-H460, read-out: IC50 H460): 0.0016 µM | IC50 [11]: 0.0031 µM | IC50 ([12]; HCT-15, 72 h, read-out: IC50 HCT15): 0.00235 µM | IC50 ([12]; HCT-15, read-out: IC50 HCT15): 0.0023 µM | IC50 [13]: 0.0053 µM

CC1=C2C[C@H]3[C@@H](CC=C4C[C@@H](O)CC[C@@]43C)[C@@H]2CC[C@]12O[C@@H]1C[C@H](C)CN(CCCCCCNC(=O)CCOCCOCCOCCOCCOCCOCCOCCOCCOCCOCCOCCOCCOCCOCCOCCOCCOCCOCCOCCOCCOCCOCCOCCOCCNC(=O)CCN3C(=O)C=CC3=O)C1[C@H]2C (stereo partly drawn) [CEN10-130]
IC50 ([1]; A549, Example 10, working concentrations 0.9 to 1000 uM, read-out: IC50 A549): 244 µM

C[C@]12CC[C@H](O[C@@H]3OC(CO)[C@@H](O)[C@H](O)C3N)C=C1CCC1C2CC[C@]2(C)[C@@H](c3ccc(=O)oc3)CC[C@]12O (stereo partly drawn) [CEN10-126, scillarenin-2-deoxy-2-amino-β-D-glucopyranoside]
activity decrease when attached to the PEG24 linker and capped, compared to the free uncoupled agent [1]: ~300 fold | IC50 [1, 14]: 0.0013 µM

CC1=C2C[C@H]3[C@@H](CC=C4C[C@@H](O)CC[C@@]43C)[C@@H]2CC[C@]12O[C@@H]1C[C@H](C)CN[C@H]1[C@H]2C [cyclopamine, Cyclopamine, reference compound]
IC50 ([1]; A549, read-out: IC50 A549): 392 µM
